Results reported in patent publication US7144902B1, “Prodrugs of thrombin inhibitors” (Abbott GmbH & Co. KG, priority 1999, dated 2006).

System: human colon adenocarcinoma cell lines HT-29, Caco-2 and T84; IEC-18 cell line
Assay: Transport experiments through intestinal cell layers on Transwell polycarbonate membranes (apical to basolateral)
Type: in vitro ADME
Design: key: +++: very good transport; ++: good transport; +: moderate transport
Conditions: transport rate from apical side through the cell layer to basolateral side, e.g. apical (pH 6.0) to basolateral (pH 8.0), e.g. 24 h; HPLC; divided into categories
Excerpt: Several in vitro models are available for studying intestinal absorption. Thus, the human colon adenocarcinoma cell lines HT-29, Caco-2 and T84 are routinely employed to investigate various intestinal transport processes (Madara et al., Am. J. Physiol. 1988, 254: G416–G423; K. L. Audus et al., Pharm. Res. 1990, 7, 435–451). The IEC-18 cell line has also shown itself to be a suitable model for investigating the permeability of hydrophilic substances through the intestinal membrane (Ma et al., J. Lab. Clin. Med. 1992 120, 329–41; Duizer et al., J. Contr. Rel. 1997 49, 39–49).
For the transport experiments (for materials and methods, see R. T. Borchardt, P. L. Smith, G. Wilson, Models for Assessing Drug Absorption and Metabolism, 1st edition, Plenum Press New York and London, 1996, chapter 2), the cells are cultivated on Transwell polycarbonate membranes for 17–24 days. The test chamber is arranged so that the membrane divides the apical from the basolateral compartment. Transport of the test substances from the apical side through the cell layer onto the basolateral side can be measured as a function of the pH gradient, for example apical (pH 6.0)→basolateral (pH 8.0).
After incubation of the cells with the test substance, samples are taken from the apical and basolateral sides after a defined time interval (e.g. 24 h). The content of test substance employed and any metabolites in each of the two compartments is determined by HPLC (comparison of retention times) and HPLC-MS (elucidation of metabolites) analyses. The transport rate is calculated.
It is possible on the basis of the results of these tests to divide test substances into the following categories: […]

Row | Transport | Structure (SMILES)
1 | ++ | CCCCCCCCCCCCCCCCOC(=O)CN[C@H](CC1CCCCC1)C(=O)N1CC=CC1C(=O)NCc1nc(C(N)=NO)cs1.Cl (some centres unmarked) [Example 25, N-(Hexadecyloxycarbonylmethyl)-(D)-cyclohexylalanyl-3,4-dehydroproline 4-hydroxyamidino-2-thiazolylmethylamide hydrochloride]
2 | ++ | CCCCCCOC(=O)CN[C@H](CC1CCCCC1)C(=O)N1CC=CC1C(=O)NCc1nc(C(N)=NO)cs1.Cl (some centres unmarked) [Example 29, N-(Hexyloxycarbonylmethyl)-(D)-cyclohexylalanyl-3,4-dehydroproline 4-hydroxyamidino-2-thiazolylmethylamide hydrochloride]
3 | +++ | CC(C)CCOC(=O)CN[C@H](CC1CCCCC1)C(=O)N1CC=CC1C(=O)NCc1nc(C(N)=NO)cs1.Cl (some centres unmarked) [Example 33, N-(3,3-Dimethylpropyloxycarbonylmethyl)-(D)-cyclohexylalanyl-3,4-dehydroproline 4-hydroxyamidino-2-thiazolylmethylamide hydrochloride]

More lines, now with the values behind:

Row | Structure (SMILES) | Transport
4 | CC(C)COC(=O)NC(=N)c1ccc(CNC(=O)C2C=CCN2C(=O)[C@H](NCC(=O)O)C2CCCCC2)s1.Cl (some centres unmarked) [Example 2, N-(Hydroxycarbonylmethyl)-(D)-cyclohexylglycyl-3,4-dehydroproline 2-(N-isobutyloxycarbonyl)amidino-5-thienylmethylamide hydrochloride] | +
5 | Cc1ccc(CON=C(N)c2ccc(CNC(=O)C3C=CCN3C(=O)[C@H](NCC(=O)O)C3CCCCC3)s2)cc1.Cl (some centres unmarked) [Example 10, N-(Hydroxycarbonylmethyl)-(D)-cyclohexylglycyl-3.4-dehydroproline 2-(N-(p-methylbenzyloxy)amidino)-5-thienylmethylamide hydrochloride] | +
6 | CCOC(=O)CN[C@@H](C(=O)N1CC=CC1C(=O)NCc1ccc(C(N)=NOCc2ccc(C)cc2)s1)C1CCCCC1.Cl (some centres unmarked) [Example 11, N-(Ethoxycarbonylmethyl)-(D)-cyclohexylglycyl-3.4-dehydroproline 2-(N-(p-methylbenzyloxy)amidino)-5-thienylmethylamide hydrochloride] | +++
7 | CCCCCCCCCCCCCCCCOC(=O)CN[C@H](CC1CCCCC1)C(=O)N1CC=CC1C(=O)NCc1nc(C(=N)N)cs1.Cl.Cl (some centres unmarked) [Example 21, N-(Hexadecyloxycarbonylmethyl)-(D)-cyclohexylalanyl-3,4-dehydroproline 4-amidino-2-thiazolylmethylamide dihydrochloride] | ++

System: not listed separately
Assay: Stability of aqueous solutions of the product
Type: physicochemical
Conditions: neutral versus acidic aqueous solutions; acylated amidine function is hydrolyzed in acid
Experimental: • The crude product obtained in g), t-BuO2C—CH2-(Boc)-(D)-Chg-Pyr-NH—CH -5-(2=NH(NH—COOCH3))-thioph (1.7 g, max. 2.3 mmol), was dissolved in a mixture of 45 ml of methylene chloride, 20 ml of dioxane and 45 ml of 4N hydrochloric acid in dioxane and stirred overnight with exclusion of moisture. The reaction solution was concentrated in vacuo, and the residue was codistilled with ether several times and subsequently extracted by stirring with ether. After drying in vacuo, 1.3 g of the title compound were obtained as a white solid product. […] FAB-MS (M+H^+): 506

Row | Structure (SMILES) | stability of aqueous solutions
8 | COC(=O)NC(=N)c1ccc(CNC(=O)C2C=CCN2C(=O)C(NCC(=O)O)C2CCCCC2)s1.Cl (centres unmarked) [Example 1, N-(Hydroxycarbonylmethyl)-(D)-cyclohexylglycyl-3,4-dehydroproline 2-(N-methoxycarbonyl)amidino-5-thienylmethylamide hydrochloride] | distinctly more stable than acidic solutions
